In patent US6737383B1, “Herbicidal oxadiazolidines” (priority 1999, dated 2004):

Legend:
Conditions in all cases: 0 to 10 scale where 0 is no effect and 10 is complete control
[1] = tested on: barnyardgrass; assay: Test A barnyardgrass; format: in vivo, Echinochloa crus-galli
In short: (§1)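 Injury scored visually after about eleven greenhouse days against untreated plants, 0 = no effect, 10 = complete control. Compounds, formulated in surfactant-containing non-phytotoxic solvent, were applied as preemergence soil drench to sandy loam plantings and as postemergence runoff spray at the 1–2 leaf stage.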

[2] = tested on: crabgrass; assay: Test A crabgrass; format: in vivo, Digitaria spp.
In short: as §1

[3] = tested on: morningglory; assay: Test A morningglory; format: in vivo, Ipomoea spp.
Experimental: (§2) Seeds of barnyardgrass (Echinochloa crus-galli), crabgrass (Digitaria spp.), morningglory (Ipomoea spp.), and velvetleaf (Abutilon theophrasti) were planted into a sandy loam soil and treated preemergence by soil drench with test chemicals formulated in a non-phytotoxic solvent mixture which includes a surfactant At the same time, these crop and weed species were also treated postemergence sprayed to runoff, with test chemicals formulated in the same manner.
(§3) Plants ranged in height from two to eighteen cm and were in the one to two leaf stage for the postemergence treatment. Treated plants and untreated controls were maintained in a greenhouse for approximately eleven days, after which all treated plants were compared to untreated controls and visually evaluated for injury. Plant response ratings, summarized in Table A, are based on a 0 to 10 scale where 0 is no effect and 10 is complete control.

[4] = tested on: velvetleaf; assay: Test A velvetleaf; format: in vivo, Abutilon theophrasti
Experimental: as §2, §3

With `CC(C)N(C(=O)n1oc(=O)n(N(C)C)c1=O)c1ccccc1` [Compound 225] as the molecule, how does the “Plant response rating, Barnyardgrass” value ([1]; Postemergence, Rate 1000 g/ha) read?
Its value is 9.

And the “Plant response rating, Barnyardgrass” value ([1]; Pre-emergence, Rate 2000 g/ha)?
Its value is 10.

And the “Plant response rating, Crabgrass” value ([2]; Postemergence, Rate 1000 g/ha)?
The value was 9.

What about the “Plant response rating, Crabgrass” value ([2]; Pre-emergence, Rate 2000 g/ha) of the same molecule?
Its value is 10.

What about the “Plant response rating, Morningglory” value ([3]; Postemergence, Rate 1000 g/ha) of the same molecule?
Its value is 10.

And the “Plant response rating, Morningglory” value ([3]; Pre-emergence, Rate 2000 g/ha)?
The value was 8.

What about the “Plant response rating, Velvetleaf” value ([4]; Postemergence, Rate 1000 g/ha) of the same molecule?
Its value is 3.

What about the “Plant response rating, Velvetleaf” value ([4]; Pre-emergence, Rate 2000 g/ha) of the same molecule?
The value was 7.

`CCc1cccc(C)c1-n1c(=O)on(C(=O)N(c2ccc(F)cc2)C(C)C)c1=O` [Compound 52] was tested. Which “Plant response rating, Barnyardgrass” value ([1]; Postemergence, Rate 1000 g/ha) did it give?
Its value is 5.

And the “Plant response rating, Barnyardgrass” value ([1]; Pre-emergence, Rate 2000 g/ha)?
Its value is 9.

What about the “Plant response rating, Crabgrass” value ([2]; Postemergence, Rate 1000 g/ha) of the same molecule?
The value was 8.

And the “Plant response rating, Crabgrass” value ([2]; Pre-emergence, Rate 2000 g/ha)?
Its value is 10.

What about the “Plant response rating, Morningglory” value ([3]; Postemergence, Rate 1000 g/ha) of the same molecule?
The value was 1.

And the “Plant response rating, Morningglory” value ([3]; Pre-emergence, Rate 2000 g/ha)?
Its value is 0.

And the “Plant response rating, Velvetleaf” value ([4]; Postemergence, Rate 1000 g/ha)?
The value was 1.

And the “Plant response rating, Velvetleaf” value ([4]; Pre-emergence, Rate 2000 g/ha)?
The value was 0.
